Patent US10086039B2, “Lamin A, an activator of longevity/anti-aging SIRT1 protein” (THE UNIVERSITY OF HONG KONG, priority 2012, dated 2018)

Tests used:
[1] = target: T1, FLAG-SIRT1 binding to lamin A (Homo sapiens, UniProt Q96EB6); experiment: Co-immunoprecipitation of FLAG-SIRT1 and lamin A in HEK293 cells; format: cell-based; conditions: dose-dependent per FIG. 3D legend
T1 construct: expressed in transfected cells; host or cells: HEK293
T1 sequence (Q96EB6 1-747): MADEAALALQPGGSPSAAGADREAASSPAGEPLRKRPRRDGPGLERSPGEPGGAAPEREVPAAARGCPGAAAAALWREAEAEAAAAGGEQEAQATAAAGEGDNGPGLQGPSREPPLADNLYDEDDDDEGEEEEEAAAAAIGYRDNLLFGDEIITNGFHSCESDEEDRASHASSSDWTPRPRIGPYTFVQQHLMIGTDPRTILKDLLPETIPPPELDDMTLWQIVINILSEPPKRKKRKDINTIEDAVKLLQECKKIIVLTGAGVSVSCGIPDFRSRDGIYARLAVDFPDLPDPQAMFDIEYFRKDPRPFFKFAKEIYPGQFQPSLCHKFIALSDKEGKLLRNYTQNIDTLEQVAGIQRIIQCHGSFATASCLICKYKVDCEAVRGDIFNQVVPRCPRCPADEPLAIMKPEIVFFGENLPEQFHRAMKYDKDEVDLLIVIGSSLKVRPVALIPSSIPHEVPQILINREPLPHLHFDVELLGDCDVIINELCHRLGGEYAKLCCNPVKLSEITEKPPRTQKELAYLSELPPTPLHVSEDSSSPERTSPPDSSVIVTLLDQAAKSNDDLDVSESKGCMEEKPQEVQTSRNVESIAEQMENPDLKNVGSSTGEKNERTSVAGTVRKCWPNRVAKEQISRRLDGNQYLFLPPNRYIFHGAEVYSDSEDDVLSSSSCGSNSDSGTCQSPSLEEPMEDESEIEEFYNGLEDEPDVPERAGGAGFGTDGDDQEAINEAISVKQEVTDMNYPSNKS
T1 sequence (P02545 1-646 partner limits assumed): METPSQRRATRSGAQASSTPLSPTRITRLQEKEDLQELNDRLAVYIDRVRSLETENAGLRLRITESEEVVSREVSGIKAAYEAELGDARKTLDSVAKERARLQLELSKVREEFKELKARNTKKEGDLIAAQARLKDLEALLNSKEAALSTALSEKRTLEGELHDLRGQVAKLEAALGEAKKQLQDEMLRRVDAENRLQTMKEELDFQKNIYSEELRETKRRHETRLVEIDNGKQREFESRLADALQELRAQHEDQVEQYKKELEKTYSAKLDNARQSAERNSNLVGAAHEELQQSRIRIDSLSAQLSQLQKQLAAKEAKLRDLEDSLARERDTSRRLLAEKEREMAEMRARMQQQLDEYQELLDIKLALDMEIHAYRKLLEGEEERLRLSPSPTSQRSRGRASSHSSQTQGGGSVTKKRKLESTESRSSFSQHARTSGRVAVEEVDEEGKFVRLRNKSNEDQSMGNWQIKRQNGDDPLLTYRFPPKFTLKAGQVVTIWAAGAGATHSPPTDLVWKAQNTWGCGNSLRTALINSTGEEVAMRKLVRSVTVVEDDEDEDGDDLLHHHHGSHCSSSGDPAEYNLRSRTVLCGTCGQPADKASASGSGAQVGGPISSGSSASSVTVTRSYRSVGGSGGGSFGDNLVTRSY
Protocol: For co-immunoprecipitation, cells were lysed into pre-chilled RIPA buffer containing 300 mM or 500 mM NaCl and protease inhibitors. Primary antibodies or appropriate control IgGs were added to the lysate and incubated for 2 h on a rocking platform at 4° C. before Agarose beads were added and incubated O/N. The beads were washed twice with RIPA buffer, resuspended into Laemmli buffer and boiled, and protein suspension was collected by centrifugation and stored for further analysis.

[2] = tested on: Zmpste24−/− mice; experiment: HSC population in bone marrow of treated Zmpste24−/− mice (FACS); format: in vivo, mouse; conditions: resveratrol 20 μg/ml in drinking water
Protocol: Zmpste24^-/- mice have been described previously ([…] et al., 2002). Mouse experimentation was performed in accordance with the guidelines of the Committee on the Use of Live Animals in Teaching and Research (CULATR) at the University of Hong Kong. New-born Zmpste24^-/- mice and wild-type controls were fed with resveratrol (20 μg/ml) or N-acetyl Cysteine (1 mg/ml) in drinking water. The survival of resveratrol-treated, NAC-treated, or vehicle-treated Zmpste24^-/- mice was recorded and their body weight was monitored weekly. The trabecular bone organization and bone mineral density were determined by micro-CT. The survival rate was analyzed by Kaplan-Meier method and statistical comparison was performed by Log-rank (Mantel-Cox) Test. To analyze hematopoietic stem cells, mononucleated cells were collected by flushing femurs and tibias with staining medium (HBSS supplemented with 2% FBS) and stained with biotin-coupled lineage markers, Biotin-Flt3, PE-Sca-1, APC-c-Kit, and then SAv-PerCP. FACS profile analyses were performed using a BD FACSCalibur.

Oc1ccc(C=Cc2cc(O)cc(O)c2)cc1 [resveratrol]
binding of FLAG-SIRT1 to lamin A [1]: enhanced the binding | early decline in HSCs [2]: rescued
